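Assay format: 96-well plates, 48-hour exposure. TGI marks complete inhibition of growth.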
Tests used:
Experiment in all cases: DTP human tumour cell line panel, 48 h
NCI-H23 lung = tested on: NCI-H23 lung
NCI-H522 lung = tested on: NCI-H522 lung
RPMI-8226 leukemia = tested on: RPMI-8226 leukemia
T-47D breast = tested on: T-47D breast
MDA-MB-231 breast = tested on: MDA-MB-231 breast
UACC-62 melanoma = tested on: UACC-62 melanoma
HCT-116 colon = tested on: HCT-116 colon
MOLT-4 leukemia = tested on: MOLT-4 leukemia
MCF7 breast = tested on: MCF7 breast
SN12C renal = tested on: SN12C renal
NCI/ADR-RES ovarian = tested on: NCI/ADR-RES ovarian
ACHN renal = tested on: ACHN renal
HL-60(TB) leukemia = tested on: HL-60(TB) leukemia
MDA-MB-435 = tested on: MDA-MB-435
U251 CNS = tested on: U251 CNS
HS 578T breast = tested on: HS 578T breast
CAKI-1 renal = tested on: CAKI-1 renal
RXF 393 renal = tested on: RXF 393 renal
HOP-62 NSCLC = tested on: HOP-62 NSCLC
OVCAR-4 ovarian = tested on: OVCAR-4 ovarian

| Structure (SMILES) | TGI (NCI-H23 lung) [µM] | TGI (NCI-H522 lung) [µM] | TGI (RPMI-8226 leukemia) [µM] | TGI (T-47D breast) [µM] | TGI (MDA-MB-231 breast) [µM] | TGI (UACC-62 melanoma) [µM] | TGI (HCT-116 colon) [µM] | TGI (MOLT-4 leukemia) [µM] | TGI (MCF7 breast) [µM] | TGI (SN12C renal) [µM] | TGI (NCI/ADR-RES ovarian) [µM] | TGI (ACHN renal) [µM] | TGI (HL-60(TB) leukemia) [µM] | TGI (MDA-MB-435) [µM] | TGI (U251 CNS) [µM] | TGI (HS 578T breast) [µM] | TGI (CAKI-1 renal) [µM] | TGI (RXF 393 renal) [µM] | TGI (HOP-62 NSCLC) [µM] | TGI (OVCAR-4 ovarian) [µM] |
| --- | --- | --- | --- | --- | --- | --- | --- | --- | --- | --- | --- | --- | --- | --- | --- | --- | --- | --- | --- | --- |
| CC(C)=CCC/C(=C\CC/C(=C\CCc1ccoc1)C(=O)O)C(=O)O | > 100 | > 100 | > 100 | > 100 | > 100 | > 100 | > 100 | > 100 | > 100 | > 100 | > 100 | > 100 | > 100 | > 100 | > 100 | > 100 | > 100 | > 100 | > 100 | > 100 |
| Cc1ccccc1C(=O)C#Cc1cn(C2CC(O)C(CO)O2)c(=O)[nH]c1=O (stereo not given) | > 100 | 28.7 | > 100 | > 100 | > 100 | > 100 | > 100 | 92.5 | > 100 | > 100 | > 100 | > 100 | > 100 | > 100 | > 100 | > 100 | > 100 | > 100 | > 100 | > 100 |
| CN1[C@@H]2CCCC[C@H]2N(C)P1(=O)C(O)/C=C/c1ccccc1 (stereo not given in full) | > 100 | > 100 | > 100 | > 100 | > 100 | > 100 | > 100 | > 100 | > 100 | > 100 | > 100 | > 100 | > 100 | > 100 | > 100 | > 100 | > 100 | > 100 | > 100 | > 100 |
| O=C1c2n[nH]nc2C(=O)c2n[nH]nc21 | > 100 | > 100 | > 100 | > 100 | > 100 | > 100 | > 100 | > 100 | > 100 | > 100 | > 100 | > 100 | > 100 | > 100 | > 100 | > 100 | > 100 | > 100 | > 100 | > 100 |
| c1ccc2c(c1)CCN(C1=NCCO1)C2 | > 10 | > 10 | > 10 | > 10 | > 10 | > 10 | > 10 | > 10 | > 10 | > 10 | > 10 | > 10 | > 10 | > 10 | > 10 | > 10 | > 10 | > 10 | > 10 | > 10 |
| CCOP(=O)(CC1CC(O)(CNc2cc(Cl)nc(N)n2)C1)OCC (stereo not given) | > 100 | > 100 | > 100 | > 100 | > 100 | > 100 | > 100 | > 100 | > 100 | > 100 | > 100 | > 100 | > 100 | > 100 | > 100 | > 100 | > 100 | > 100 | > 100 | > 100 |
| CC(/C=N/N(C)C1=NCCCCN1)=N/N(C)C1=NCCCCN1 | > 100 | > 100 | > 100 | > 100 | > 100 | > 100 | > 100 | > 100 | > 100 | > 100 | > 100 | > 100 | > 100 | > 100 | > 100 | > 100 | > 100 | > 100 | > 100 | > 100 |
| COc1ccc(/C=C2\Sc3nnc(C)n3N=C2c2cc(F)c(Cl)cc2Cl)cc1OC | 26.7 | 38.7 | 11.1 | > 100 | 79.8 | 33.4 | 18.5 | > 100 | 19.5 | 34.5 | 35.6 | 27.1 | 96.4 | 23.2 | 30.2 | > 100 | 23.7 | 32.7 | 33.3 | 28.8 |
| CCN(CC)c1ccc2c(c1)Oc1ccc(N(C(C)=O)c3ccccc3)cc1C21OC(=O)c2ccccc21 (stereo not given) | > 100 | > 100 | > 100 | > 100 | > 100 | > 100 | > 100 | > 100 | > 100 | > 100 | > 100 | > 100 | 97.6 | > 100 | > 100 | > 100 | > 100 | > 100 | > 100 | > 100 |
| CC1(CCc2ccccc2)CC1(Br)Br (stereo not given) | > 100 | 61.5 | 44.8 | > 100 | > 100 | > 100 | > 100 | 56 | > 100 | 38.1 | > 100 | 61 | 41.9 | 60.1 | > 100 | > 100 | > 100 | 41.2 | > 100 | > 100 |
| CCOC(=O)c1[nH]cnc1/N=N/N(C)N | > 100 | 78.7 | > 100 | > 100 | > 100 | > 100 | > 100 | > 100 | > 100 | > 100 | > 100 | > 100 | 68.6 | > 100 | > 100 | > 100 | 61.2 | > 100 | > 100 | > 100 |
| Cc1ncc([N+](=O)[O-])n1CCNS(=O)(=O)CCCn1ccnc1[N+](=O)[O-] | > 100 | > 100 | > 100 | > 100 | > 100 | > 100 | > 100 | > 100 | > 100 | > 100 | > 100 | > 100 | > 100 | > 100 | > 100 | > 100 | > 100 | > 100 | > 100 | > 100 |
| NC(CCl)=NC1CN2CCC1CC2 (stereo not given) | > 100 | 58 | > 100 | > 100 | > 100 | > 100 | > 100 | > 100 | > 100 | > 100 | > 100 | > 100 | > 100 | > 100 | > 100 | > 100 | > 100 | > 100 | > 100 | > 100 |
